Laboratory results taken from paper PMC12806164, “Epithelial Heparan Sulfate Promotes Staphylococcus aureus Corneal Infection by Inhibiting Cathelicidins” (Proteoglycan research, 2025).
No end group written: not given here.

Assays:
S. aureus USA300 [1] = assay: Bacteria live/dead staining (BaclightGreen / propidium iodide); assay type: cell-based, Staphylococcus aureus; conditions: 0.5 μM CRAMP without or with 5 μg/mL compound, 30 min at room temperature, propidium iodide 10 μg/mL
Experimental: (§1) (A) Schematics of HS/HP structure. […] (F) BaclightGreen-labeled S. aureus (~400 cfu) was incubated with 0.5 μM CRAMP without or with 5 μg/mL HP, NDS-HP, 2ODS-HP, 6ODS-HP, H, NS-H, or NS2OS-H for 30 min at room temperature. Bacteria were washed, incubated with 10 μg/mL propidium iodide for 15 min at 4°C, and live (green) and dead (red) bacteria were visualized by fluorescence microscopy.
S. aureus USA300 was stained by BaclightGreen (Thermo Fisher) following the manufacturer’s instructions. Briefly, an overnight culture of S. aureus was resuspended in PBS and incubated with 100 μM BaclightGreen for 15 min at room temperature. […] Bacteria were mounted on glass slides and images were captured with a fluorescence microscope (Zeiss Axiovert 40 CFL). […]
Figure S1. A) CRAMP expression was measured in uninfected Wt corneas or Wt corneas isolated at 4 h post-S. aureus USA300 infection. […] Total RNA was purified from the corneal epithelium, and 1 ng of total RNA was analyzed by qRT-PCR for CRAMP or β-actin expression (n = 3, **p < 0.01). […] Bacterial killing was measured by plating serial dilutions onto TSA plates and counting colonies the following day. […] Bacteria were washed three times with buffer, incubated with 0.5 μM CRAMP for 2 h at 37°C, and % bacterial killing was determined by plating serial dilutions of samples (n = 4). […] Images were captured with a fluorescence microscope (Zeiss Axiovert 40 CFL). […]

[2] = Alexa 647-CRAMP binding to Affi-Gel HP beads, direct and with unlabeled peptides (flow cytometry); conditions: 20-fold excess (5 μM) unlabeled peptide, 250 nM Alexa 647-labeled CRAMP, 1 h at room temperature, n = 3–4
Experimental: FIGURE 5 | Secondary structure of mature CRAMP is required for binding to heparan compounds. (A) Sequence and pI (in parentheses) of the 34 amino acid long mature CRAMP and four 10- or 20-mer peptides that span amino acids 4–13 (CR-1), 13–22 (CR-2), 24–33 (CR-3), or 4–23 (CR-4) of mature CRAMP. (B) Affi-Gel HP beads were incubated with 250 nM of Alexa 647-labeled CRAMP without or with 5 μM of unlabeled CRAMP, heat-treated CRAMP, CR-1, CR-2, CR-3, or CR-4 peptides for 1 h at room temperature. […] (C) ITC analyses of heat-treated CRAMP binding to HP. The fitted heat curve of titrating CRAMP binding to HP is shown. TEXT PRINTED IN THE PICTURE: (A) CRAMP: (10.0) | (A) CR-1: (9.6) | (A) CR-2: (10.6) | (A) CR-3: (5.9) | (A) CR-4: (10.4) DOUBTS OF THE COPYIST ABOUT THIS PICTURE: Panel A: the numbers in brackets after the peptide names are printed without any measure or unit in the picture, so they are given as printed, without a measure.
(§2) Affi-Gel HP beads were washed and resuspended in PBS. Affi-Gel HP beads (20 μL) were incubated with 0.5 μM Alexa 647-labeled CRAMP without or with 20 μg/mL HP, chemically desulfated HP, or chemoenzymatically sulfated H for 1 h at room temperature. Affi-Gel HP beads were washed with PBS, and the Alexa 647-labeled CRAMP bound to them was assessed by flow cytometry.

LL-37 = assay: Inhibition by glycosaminoglycans of S. aureus killing by LL-37; assay type: cell-based, human; conditions: 5 μg/mL glycosaminoglycan, 1 μM LL-37, ~500 cfu USA300, phosphate buffer pH 7.4, 2 h at 37°C, n = 6
Experimental: (§3) Samples were plated onto TSA plates, and viable bacteria (cfu) were counted the following day. Data are shown as % bacterial killing, where killing activity in the presence of cathelicidin only represents 100% (n = 6, *p < 0.05, ****p < 0.0001, one-way ANOVA, multiple comparisons).
as §1
(§4) Late log phase S. aureus USA300 was washed with phosphate buffer (8.2 mM Na2HPO4, 1.8 mM KH2PO4, pH 7.4) and approximately 500 cfu were incubated with cathelicidins with or without excess GAGs for 2 h at 37°C as indicated. Viable bacteria were enumerated by plating onto TSA plates and counting colonies the following day. Results are shown as % bacterial killing, where 100% killing represents data derived from the group of bacteria incubated with cathelicidins only.

SMAP-29 = assay: Inhibition by glycosaminoglycans of S. aureus killing by SMAP-29; assay type: cell-based, sheep; conditions: 5 μg/mL glycosaminoglycan, 0.5 μM SMAP-29, ~500 cfu USA300, phosphate buffer pH 7.4, 2 h at 37°C, n = 6
Experimental: as §3, §1, §4

CRAMP [3] = assay: Alexa 647-CRAMP binding to Affi-Gel HP beads, competition by HP compounds (flow cytometry); design: species or system mouse; conditions: 20 μg/mL competitor, 0.5 μM Alexa 647-conjugated CRAMP, 1 h at room temperature, n = 4
Experimental: (§5) FIGURE 4 | 2-O-sulfated heparan compounds directly bind to CRAMP with high affinity. Alexa 647-conjugated CRAMP (0.5 μM) was incubated with Affi-Gel HP beads without or with 20 μg/mL of HP, NDS-HP, 2ODS-HP, or 6ODS-HP for 1 h at room temperature. CRAMP fluorescence associated with Affi-Gel HP beads was analyzed by flow cytometry. Results are shown as (A) % CRAMP binding and (B) mean fluorescence intensity (MFI) of CRAMP binding (n = 4, ***p < 0.001, ****p < 0.0001). ITC analyses for CRAMP binding to HP were performed at 25°C using a MicroCal iTC 200 titration calorimetry. The fitted heat curves of titrating CRAMP binding to (C) HP and (D) 2ODS-HP are shown.
as §2

CAP-18 = assay: Inhibition by glycosaminoglycans of S. aureus killing by CAP-18; assay type: cell-based, rabbit; conditions: 5 μg/mL glycosaminoglycan, 0.5 μM CAP-18, ~500 cfu USA300, phosphate buffer pH 7.4, 2 h at 37°C, n = 6
Experimental: as §3, §1, §4

CRAMP [4] = assay: ITC of HP and 2ODS-HP binding to CRAMP; design: species or system mouse; conditions: 25.0°C, 50 mM HEPS pH 7.4, 150 mM NaCl
Experimental: as §5
ITC of CRAMP binding to HP and modified HP was carried out at 25.0°C using a MicroCal iTC 200 titration calorimetry system (Malvern, UK). A stock solution of CRAMP was diluted to 12.5 μM in 50 mM HEPS, pH 7.4, 150 mM NaCl, and approximately 300 μL of this solution was loaded into the ITC cell and titrated with 25 μM of HP or 2ODS-HP in the same buffer. Briefly, titration injection of HP or 2ODS-HP consisted of a first injection of 0.4 μL followed by 18 consecutive injections of 2 μL of 0.8 s duration and with a 2.5 min interval between injections. […] The enthalpy change of binding (ΔH), the binding affinity, and the binding stoichiometry were determined.

S. aureus USA300 [5] = assay: Pre-incubation of S. aureus with glycosaminoglycans, washing, then killing by cathelicidin; assay type: cell-based, Staphylococcus aureus; conditions: 5 μg/ml glycosaminoglycan pre-incubated with 500 cfu USA300 30 min at 37°C, washed three times, then 0.5 μM CRAMP 2 h at 37°C, n = 4
Experimental: Figure S1. A) CRAMP expression was measured in uninfected Wt corneas or Wt corneas isolated at 4 h post-S. aureus USA300 infection. Briefly, eyes were enucleated, corneas were dissected, and isolated corneas were incubated with 10 mg/ml dispase II overnight at 4°C to peel off the corneal epithelium. Total RNA was purified from the corneal epithelium, and 1 ng of total RNA was analyzed by qRT-PCR for CRAMP or β-actin expression (n = 3, **p < 0.01). […] Bacterial killing was measured by plating serial dilutions onto TSA plates and counting colonies the following day. Results are shown as % bacterial survival (n = 4). Figure S2. […] Bacterial killing (%) was enumerated by plating serial dilutions onto TSA plates and counting colonies the following day (n = 5). B) Effects of pre-incubating S. aureus with glycosaminoglycans on bacterial killing by cathelicidins were examined by incubating 500 cfu of USA300 without or with 5 μg/ml HS, HP, DS, or CS for 30 min at 37°C. Bacteria were washed three times with buffer, incubated with 0.5 μM CRAMP for 2 h at 37°C, and % bacterial killing was determined by plating serial dilutions of samples (n = 4). Figure S3. […] Images were captured with a fluorescence microscope (Zeiss Axiovert 40 CFL). Quantification of % dead bacteria (out of total bacteria in field) is shown at the bottom. […] S. aureus-associated CRAMP fluorescence was analyzed by flow cytometry. […]

CRAMP [6] = assay: Inhibition by glycosaminoglycans of S. aureus killing by CRAMP; assay type: cell-based, mouse; conditions: 5 μg/mL glycosaminoglycan, 0.5 μM CRAMP, ~500 cfu USA300, phosphate buffer pH 7.4, 2 h at 37°C, n = 6
Experimental: as §3, §1, §4
(§6) Figure S1. A) CRAMP expression was measured in uninfected Wt corneas or Wt corneas isolated at 4 h post-S. aureus USA300 infection. Briefly, eyes were enucleated, corneas were dissected, and isolated corneas were incubated with 10 mg/ml dispase II overnight at 4°C to peel off the corneal epithelium. Total RNA was purified from the corneal epithelium, and 1 ng of total RNA was analyzed by qRT-PCR for CRAMP or β-actin expression (n = 3, **p < 0.01). […] Bacterial killing was measured by plating serial dilutions onto TSA plates and counting colonies the following day. Results are shown as % bacterial survival (n = 4). Figure S2. […] Bacterial killing (%) was enumerated by plating serial dilutions onto TSA plates and counting colonies the following day (n = 5). B) Effects of pre-incubating S. aureus with glycosaminoglycans on bacterial killing by cathelicidins were examined by incubating 500 cfu of USA300 without or with 5 μg/ml HS, HP, DS, or CS for 30 min at 37°C. Bacteria were washed three times with buffer, incubated with 0.5 μM CRAMP for 2 h at 37°C, and % bacterial killing was determined by plating serial dilutions of samples (n = 4). Figure S3. S. aureus USA300 stained with BaclightGreen was incubated with 0.5 μM CRAMP in the absence or presence of 5 μg/ml HP, NDS-HP, 2ODS-HP, 6ODS-HP, H, NS-H, or NS2OS-H for 30 min at room temperature. Bacteria were washed and incubated with 10 μg/ml propidium iodide for 15 min on ice. Images were captured with a fluorescence microscope (Zeiss Axiovert 40 CFL). Quantification of % dead bacteria (out of total bacteria in field) is shown at the bottom. Figure S4. Alexa 647-conjugated CRAMP (0.5 μM) was incubated with fixed S. aureus USA300 without or with 5 μg/ml of the indicated glycosaminoglycans and chemically-desulfated HP compounds for 1 h at room temperature. S. aureus-associated CRAMP fluorescence was analyzed by flow cytometry. Representative FACS density plots are shown where heparan compounds containing 2-O-sulfated motifs decreased Alexa CRAMP binding by over 79% compared to the control (No GAG), except for NDS-HP where the reduction was approximately 65%. Fig. S5. Relative mRNA levels of A) Ndst1 and B) Sdc1 in the corneal epithelium of Hs2st^fl/fl, Krt12Cre, and Hs2st^fl/fl/Krt12Cre mice (n = 3).

CRAMP [7] = assay: Alexa 647-CRAMP binding to fixed S. aureus, inhibition by glycosaminoglycans (flow cytometry); design: species or system mouse; conditions: 0.5 μM Alexa 647-conjugated CRAMP
Experimental: Alexa 647-conjugated CRAMP (0.5 μM) was incubated with 2% paraformaldehyde-fixed Staphylococcus aureus USA300 without or with 5 μg/mL HP, HS, CS, DS, NDS-HP, 6ODS-HP, or 2ODS-HP for 1 h at room temperature. S. aureus-associated CRAMP fluorescence was analyzed by flow cytometry. Results are shown as % Alexa CRAMP binding (n = 3, ****p < 0.0001).
Alexa 647 fluorophore was conjugated to CRAMP using the Lightning-Link Rapid FluoProbes647H labeling kit following the manufacturer’s instructions. S. aureus USA300 fixed in 2% paraformaldehyde for 20 min was resuspended in 20 μL of phosphate buffer and incubated with 0.5 μM of Alexa 647-labeled CRAMP for 30 min at room temperature without or with glycosaminoglycans. Unbound Alexa 647-labeled CRAMP was removed by washing with phosphate buffer, and Alexa 647-labeled CRAMP bound to bacteria was assessed by flow cytometry.
as §6

Substance	Live (green) / dead (red) state of most bacteria (S. aureus USA300 [1])	Inhibition of Alexa CRAMP binding to HP beads by unlabeled peptide [2] [%]	Inhibition of S. aureus killing by LL-37 (LL-37)	Inhibition of S. aureus killing by SMAP-29 (SMAP-29)	Inhibition of CRAMP binding to HP beads (CRAMP [3])	Inhibition of S. aureus killing by CAP-18 (CAP-18)	Kd (CRAMP [4]; 12.5 μM CRAMP in cell, titrated with 25 μM HP, read-out: Binding affinity for CRAMP binding to HP (ITC)) [nM]	Inhibition of bacterial killing by cathelicidins after pre-incubation with bacteria and washing away (S. aureus USA300 [5])	Inhibition of S. aureus killing by CRAMP (CRAMP [6])	Reduction of mean fluorescence intensity (MFI) of CRAMP binding to HP beads compared to control (CRAMP [3])	Heat changes on incubation with CRAMP (ITC) (CRAMP [4]; 12.5 μM CRAMP titrated with 25 μM 2ODS-HP)	Decrease of MFI of Alexa-labeled CRAMP binding to S. aureus compared to control (CRAMP [7]; 5 μg/mL glycosaminoglycan, 2% paraformaldehyde-fixed S. aureus USA300, 1 h at room temperature, n = 3)	Reduction of proportion of CRAMP-bound bacteria (Alexa CRAMP binding, FACS density plots) compared to No GAG (CRAMP [7]; 5 μg/ml glycosaminoglycan, fixed S. aureus USA300, 1 h at room temperature, representative plots)
GLLRKGGEKIGEKLKKIGQKIKNFFQKLVPQPEQ [CRAMP]	dead	92.7	–	–	–	–	–	–	–	–	–	–	–
heparin [HP]	–	–	over 70%	over 70%	over 75%	over 70%	45.2	did not inhibit	over 70%	–	–	–	–
2-O-desulfated HP [2ODS-HP]	–	–	significantly inhibited the ability of HP to inhibit	significantly inhibited the ability of HP to inhibit	25%	significantly inhibited the ability of HP to inhibit	–	–	significantly inhibited the ability of HP to inhibit	not	did not produce significant heat changes	no effect	not
CR-4: 20-mer peptide, amino acids 4–23 of mature CRAMP (LAGLLRKGGEKIGEKLKKIG; Cathelicidin antimicrobial peptide; UniProt P51437 138-157, looked up, fragment)	–	34.7	–	–	–	–	–	–	–	–	–	–	–
